Earlier results in patent US10953021B2, “Topical compositions of flunisolide and methods of treatment” (Lupin Limited, priority 2013, dated 2021).

How the values were obtained:
[1] = McKenzie skin blanching test, versus dexamethasone
[2] = animal anti-inflammatory assays, versus cortisol

Structure (SMILES): CC1(C)O[C@@H]2C[C@H]3[C@@H]4C[C@H](F)C5=CC(=O)C=C[C@]5(C)[C@H]4[C@@H](O)C[C@]3(C)[C@]2(C(=O)CO)O1 [Flunisolide, 6α-fluoro-11β, 21-dihydroxy-16α,17α-(isopropylidenedioxy)pregna-1,4-diene-3,20-dione]
- anti-inflammatory effects relative to dexamethasone [1]: several hundred times more potent than dexamethasone
- anti-inflammatory potency relative to cortisol [2]: several hundred times more potent than cortisol
